# Read-outs that look alike come from different tables or passages of the source.
# Columns and labels:
# [1] = system: M. tuberculosis Erdman; parameters: species or system Mycobacterium tuberculosis; details: in vivo
# [2] = system: M. tuberculosis H37Rv; parameters: species or system Mycobacterium tuberculosis; details: in vivo
# [3] = molecular target: CYP2D6 (Homo sapiens, UniProt P10635); assay: biochemical
# [4] = molecular target: T1, CYP1A2 (Homo sapiens, UniProt P05177); assay: biochemical
# T1 sequence (P05177 1-516): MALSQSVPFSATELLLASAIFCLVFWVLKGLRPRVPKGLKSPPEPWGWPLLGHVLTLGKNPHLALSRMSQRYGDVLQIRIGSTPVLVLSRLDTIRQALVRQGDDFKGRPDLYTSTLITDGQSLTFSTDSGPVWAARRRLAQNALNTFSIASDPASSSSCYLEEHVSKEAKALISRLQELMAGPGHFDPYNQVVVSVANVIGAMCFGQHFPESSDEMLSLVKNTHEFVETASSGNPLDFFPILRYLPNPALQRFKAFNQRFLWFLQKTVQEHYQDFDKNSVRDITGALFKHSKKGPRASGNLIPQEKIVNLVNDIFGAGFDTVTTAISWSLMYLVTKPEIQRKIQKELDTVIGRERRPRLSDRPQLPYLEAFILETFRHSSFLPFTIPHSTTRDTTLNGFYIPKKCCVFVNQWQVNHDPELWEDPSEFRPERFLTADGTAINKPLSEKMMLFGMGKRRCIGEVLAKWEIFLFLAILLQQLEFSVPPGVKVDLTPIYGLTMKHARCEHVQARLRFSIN
# [5] = molecular target: CYP2C9 (Homo sapiens, UniProt P11712); assay: biochemical
# [6] = system: M. tuberculosis Erdman; parameters: species or system Mycobacterium tuberculosis; details: in vivo; remark: listed apart in the source
# [7] = system: Mtb mc^27000; assay: microbe, parasite or virus in culture; type: cell-based, Mycobacterium tuberculosis; details: for MIC: Mycobacterium tuberculosis, read-out: MIC of the drug alone
# [8] = Stability in mouse serum
# [9] = Microsomal stability assay, mouse liver microsomes; details: metabolite identification
# [10] = system: Mtb mc^27000; assay: microbe, parasite or virus in culture; type: cell-based, Mycobacterium tuberculosis; details: for MIC: Mtb mc^27000, liquid medium, 96-well plates
# [11] = molecular target: T2, Mtb Pks13-TE domain (Mycobacterium tuberculosis, UniProt I6X8D2); assay: biochemical; details: mean ± SD of three independent measurements
# T2 construct: The 283 residue long TE domain starting from residue 1451 in full length Pks13; His6 (TEV-cleavable) (N, cleaved yes); made in house; host or cells: E. coli BL21(DE3)pLysS
# T2 sequence (I6X8D2 1451-1733 limits assumed): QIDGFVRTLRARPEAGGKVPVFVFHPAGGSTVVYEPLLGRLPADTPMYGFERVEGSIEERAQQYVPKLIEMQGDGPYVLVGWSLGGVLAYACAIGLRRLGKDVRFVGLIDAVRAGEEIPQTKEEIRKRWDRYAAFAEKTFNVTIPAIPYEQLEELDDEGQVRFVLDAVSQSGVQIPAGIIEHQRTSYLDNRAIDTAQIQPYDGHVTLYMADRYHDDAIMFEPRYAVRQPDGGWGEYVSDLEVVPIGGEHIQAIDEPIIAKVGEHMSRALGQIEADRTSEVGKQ
# [12] = single drug in the synergy study
# CYP2D6, sequence (P10635 whole entry): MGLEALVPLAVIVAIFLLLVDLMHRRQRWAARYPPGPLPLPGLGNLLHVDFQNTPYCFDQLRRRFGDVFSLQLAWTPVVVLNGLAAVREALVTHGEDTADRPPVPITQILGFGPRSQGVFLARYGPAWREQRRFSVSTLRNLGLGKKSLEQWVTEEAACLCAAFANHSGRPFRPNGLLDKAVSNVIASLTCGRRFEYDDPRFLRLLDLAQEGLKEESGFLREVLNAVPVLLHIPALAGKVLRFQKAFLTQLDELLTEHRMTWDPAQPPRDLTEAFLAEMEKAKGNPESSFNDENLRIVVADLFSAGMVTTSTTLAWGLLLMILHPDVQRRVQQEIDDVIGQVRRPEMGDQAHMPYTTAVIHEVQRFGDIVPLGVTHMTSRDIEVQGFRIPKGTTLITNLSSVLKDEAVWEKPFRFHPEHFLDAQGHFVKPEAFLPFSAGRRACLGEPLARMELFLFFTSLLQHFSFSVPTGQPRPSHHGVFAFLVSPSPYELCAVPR
# CYP2C9, sequence (P11712 whole entry): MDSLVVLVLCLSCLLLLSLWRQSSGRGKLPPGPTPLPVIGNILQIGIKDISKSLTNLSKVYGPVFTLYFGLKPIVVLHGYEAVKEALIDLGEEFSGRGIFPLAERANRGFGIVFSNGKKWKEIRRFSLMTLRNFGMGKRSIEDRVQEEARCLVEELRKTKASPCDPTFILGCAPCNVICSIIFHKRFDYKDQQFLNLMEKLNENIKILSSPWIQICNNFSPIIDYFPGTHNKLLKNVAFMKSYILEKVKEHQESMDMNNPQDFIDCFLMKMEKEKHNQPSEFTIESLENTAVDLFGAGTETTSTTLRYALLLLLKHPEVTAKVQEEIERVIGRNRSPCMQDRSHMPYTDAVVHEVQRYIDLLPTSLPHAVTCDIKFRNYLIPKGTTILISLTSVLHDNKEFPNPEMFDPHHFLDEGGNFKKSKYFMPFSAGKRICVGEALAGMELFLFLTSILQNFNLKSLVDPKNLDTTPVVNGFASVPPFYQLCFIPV
smiles,measurement,setting,value
"NNC(=O)c1ccncc1 [INH, Isoniazid]",reduction in lung CFU counts compared with untreated control,[1],~1.1 log10
same,reduction in spleen bacterial burden relative to untreated control,[1],~2.5 log10 CFU
same,lung CFU after 2 weeks of treatment,[2],~6.7 log10
Clc1ccc(COC(Cn2ccnc2)c2ccc(Cl)cc2Cl)c(Cl)c1 (centres unmarked) [Miconazole],IC50,[3],200 nM
same,IC50,[4],1100 nM
same,IC50,[5],> 10000 nM
"CO[C@H]1/C=C/O[C@@]2(C)Oc3c(C)c(O)c4c(O)c(c(/C=N/N5CCN(C)CC5)c(O)c4c3C2=O)NC(=O)/C(C)=C\C=C\[C@H](C)[C@H](O)[C@@H](C)[C@@H](O)[C@@H](C)[C@H](OC(C)=O)[C@@H]1C [RIF, Rifampicin]",CFU reduction in lungs compared to untreated control,[6],~2.4 log10 CFU
same,MIC of RIF in combination,[7],0.011 µM
same,improvement of MIC of RIF in combination,[7],~3 fold
same,MIC,[7],0.35 µM
"[H]/N=C(/N)N[C@H]1[C@H](O)[C@@H](O)[C@H](O[C@@H]2O[C@@H](C)[C@](O)(C=O)[C@H]2O[C@@H]2O[C@@H](CO)[C@H](O)[C@@H](O)[C@@H]2NC)[C@@H](N/C(N)=N\[H])[C@@H]1O [SM, Streptomycin]",MIC of SM in combination,[7],0.037 µM
same,improvement of MIC of SM in combination,[7],~2 fold
same,MIC,[7]; [12],0.07 µM
"CCOC(=O)c1c(-c2ccccc2)oc2ccc(O)c(CN3CCC(C)CC3)c12 [TAM1, ethyl 5-hydroxy-4-[(4-methyl-1-piperidinyl)methyl]-2-phenyl-1-benzofuran-3-carboxylate]",stability in mouse serum,[8],cleaved to the inactive acid
same,metabolism in mouse liver microsomes,[9],hydroxylated
same,MIC,[10]; Mycobacterium tuberculosis,2.3 µM
"CCOC(=O)c1c(-c2ccccc2)oc2ccc(O)c(CN3CCCC(C)C3)c12 (centres unmarked) [TAM2, ethyl 5-hydroxy-4-[(3-methyl-1-piperidinyl)methyl]-2-phenyl-1-benzofuran-3-carboxylate]",IC50,[11],120 ± 20 nM
same,MIC,[10]; Mycobacterium tuberculosis,4.4 µM
"CCOC(=O)c1c(-c2ccccc2)oc2ccc(O)c(CN3CCCC3)c12.Cl [TAM3, ethyl 5-hydroxy-2-phenyl-4-(1-pyrrolidinylmethyl)-1-benzofuran-3-carboxylate hydrochloride]",IC50,[11],240 ± 20 nM
same,MIC,[10],4.1 µM
"CCOC(=O)c1c(-c2ccccc2)oc2ccc(O)c(CN3CCCCCC3)c12.Cl [TAM4, ethyl 4-(1-azepanylmethyl)-5-hydroxy-2-phenyl-1-benzofuran-3-carboxylate hydrochloride]",IC50,[11],280 ± 30 nM
same,MIC,[10],4.6 µM
"CCOC(=O)c1c(-c2ccccc2)oc2ccc(O)c(CN3CCOCC3)c12 [TAM5, ethyl 5-hydroxy-4-(4-morpholinylmethyl)-2-phenyl-1-benzofuran-3-carboxylate]",IC50,[11],710 ± 50 nM
same,MIC,[10]; Mycobacterium tuberculosis,13.3 µM
"CCOC(=O)c1c(-c2ccccc2)oc2ccc(O)c(CN(C)C)c12 [TAM6, ethyl 4-[(dimethylamino)methyl]-5-hydroxy-2-phenyl-1-benzofuran-3-carboxylate]",IC50,[11],1570 ± 150 nM
same,MIC,[10]; Mycobacterium tuberculosis,7.3 µM
"CCOC(=O)c1c(-c2ccccc2)oc2ccc(O)cc12 [TAM7, Ethyl 5-hydroxy-2-phenylbenzofuran-3-carboxylate]",IC50,[11],20000 ± 1900 nM
same,MIC,[10]; Mycobacterium tuberculosis,20 µM
"CCOC(=O)c1c(-c2ccccc2)oc2ccc(O)c(Cc3ccccc3)c12 [TAM8, Ethyl 4-benzyl-5-hydroxy-2-phenylbenzofuran-3-carboxylate]",IC50,[11],11900 ± 2300 nM
same,MIC,[10]; Mycobacterium tuberculosis,> 40 µM
"CCOC(=O)c1c(-c2ccccc2)oc2ccc(O)c(CN3CCCCC3)c12 [TAM9, Ethyl 5-hydroxy-2-phenyl-4-(piperidin-1-ylmethyl)benzofuran-3-carboxylate]",IC50,[11],260 ± 40 nM
same,MIC,[10]; Mycobacterium tuberculosis,0.4 µM
same,Mouse Cli. (intrinsic clearance in mouse liver microsomes),,26.9 mL/min/g
"O=C(O)c1c(-c2ccccc2)oc2ccc(O)c(CN3CCCCC3)c12 [TAM10, 5-hydroxy-2-phenyl-4-(piperidin-1-ylmethyl)benzofuran-3-carboxylic acid]",IC50,[11],6600 ± 700 nM
"CCOC(=O)c1c(-c2ccccc2)oc2ccc(O)c(CC3CCCCC3)c12 [TAM11, Ethyl 4-(cyclohexylmethyl)-5-hydroxy-2-phenylbenzofuran-3-carboxylate]",IC50,[11],19600 ± 1400 nM
same,MIC,[10]; Mycobacterium tuberculosis,5.2 µM
"CNC(=O)c1c(-c2ccccc2)oc2ccc(O)c(CN3CCCCC3)c12 [TAM12, 5-hydroxy-N-methyl-2-phenyl-4-(piperidin-1-ylmethyl)benzofuran-3-carboxamide]",better whole-cell activity than ethyl ester analog TAM9,[10],2 fold
same,MIC,[10]; Mycobacterium tuberculosis,0.2 µM
same,Mouse Cli. (intrinsic clearance in mouse liver microsomes),,50 mL/min/g
"CCOC(=O)c1c(-c2ccc(O)cc2)oc2ccc(O)c(CN3CCCCC3)c12 [TAM13, Ethyl 5-hydroxy-2-(4-hydroxyphenyl)-4-(piperidin-1-ylmethyl)benzofuran-3-carboxylate]",IC50,[11],170 ± 20 nM
"CCOC(=O)c1c(-c2ccccc2)oc2ccc(OC)c(CN3CCCCC3)c12 [TAM14, Ethyl 5-methoxy-2-phenyl-4-(piperidin-1-ylmethyl)benzofuran-3-carboxylate]",IC50,[11],35800 ± 2200 nM
"CCOC(=O)c1c(-c2ccccc2)oc2cccc(CN3CCCCC3)c12 [TAM15, Ethyl 2-phenyl-4-(piperidin-1-ylmethyl)benzofuran-3-carboxylate]",IC50,[11],2000 ± 100 nM
same,MIC,[10]; Mycobacterium tuberculosis,16 µM
"CCOC(=O)c1c(-c2ccc(O)nc2)oc2ccc(O)c(CN3CCCCC3)c12 [TAM17, Ethyl 5-hydroxy-2-(6-hydroxypyridin-3-yl)-4-(piperidin-1-ylmethyl)benzofuran-3-carboxylate]",IC50,[11],360 ± 40 nM
same,MIC,[10]; Mycobacterium tuberculosis,4 µM
"CNC(=O)c1c(-c2ccc(O)c(F)c2)oc2ccc(O)c(CN3CCCCC3)c12 [TAM18, 2-(3-fluoro-4-hydroxyphenyl)-5-hydroxy-N-methyl-4-(piperidin-1-ylmethyl)benzofuran-3-carboxamide]",IC50,[11],330 ± 30 nM
same,MIC,[10]; Mycobacterium tuberculosis,0.5 µM
"CNC(=O)c1c(-c2ccc(O)cc2)oc2cc(O)cc(CN3CCCCC3)c12 [TAM19, 6-hydroxy-2-(4-hydroxyphenyl)-N-methyl-4-(piperidin-1-ylmethyl)benzofuran-3-carboxamide]",IC50,[11],570 ± 30 nM
same,MIC,[10]; Mycobacterium tuberculosis,1 µM
"CCOC(=O)c1c(-c2ccccc2)oc2cc(O)cc(CN3CCCCC3)c12 [TAM20, Ethyl 6-hydroxy-2-phenyl-4-(piperidin-1-ylmethyl)benzofuran-3-carboxylate]",IC50,[11],450 ± 40 nM
same,MIC,[10]; Mycobacterium tuberculosis,1.1 µM
"CCOC(=O)c1c(-c2ccccc2)oc2ccc(O)c(CN3CCCC(CO)C3)c12 (centres unmarked) [TAM21, Ethyl 5-hydroxy-4-((3-(hydroxymethyl)piperidin-1-yl)methyl)-2-phenylbenzofuran-3-carboxylate]",IC50,[11],420 ± 40 nM
same,MIC,[10]; Mycobacterium tuberculosis,10 µM
"CCOC(=O)c1c(-c2ccccc2)oc2ccc(O)c(CN3CCCCC3CO)c12 (centres unmarked) [TAM22, Ethyl 5-hydroxy-4-((2-(hydroxymethyl)piperidin-1-yl)methyl)-2-phenylbenzofuran-3-carboxylate]",IC50,[11],> 10000 nM
same,MIC,[10]; Mycobacterium tuberculosis,> 10 µM
"CCOC(=O)c1c(-c2ccc(O)cc2)oc2ccc(O)c(CN3CCCC(CO)C3)c12 (centres unmarked) [TAM23, Ethyl 5-hydroxy-4-((3-(hydroxymethyl)piperidin-1-yl)methyl)-2-(4-hydroxyphenyl)benzofuran-3-carboxylate]",IC50,[11],380 ± 10 nM
same,MIC,[10]; Mycobacterium tuberculosis,2.5 µM
"CNC(=O)c1c(-c2ccccc2)oc2ccc(O)c(CN3CCCC(CO)C3)c12 (centres unmarked) [TAM24, 5-Hydroxy-4-((3-(hydroxymethyl)piperidin-1-yl)methyl)-N-methyl-2-phenylbenzofuran-3-carboxamide]",IC50,[11],2100 ± 300 nM
same,MIC,[10]; Mycobacterium tuberculosis,0.5 µM
"COc1nc2ccc(Br)cc2cc1[C@@H](c1ccccc1)[C@@](O)(CCN(C)C)c1cccc2ccccc12 [TMC207, Bedaquiline]",MIC of TMC207 in combination,[7],0.005 µM
same,improvement of MIC of TMC207 in combination,[7],2.6 fold
same,MIC,[7]; [12],0.013 µM

# From PMC5509550, “Development of a Novel Lead that Targets M. tuberculosis Polyketide Synthase 13” (Cell, 2017)
